Laboratory results from PubChem BioAssay AID256 (DTP/NCI, 2004).
Inconclusive results and toxic doses are left out. How the source made its calls: active means survival T/C of 150% or more; inactive means T/C below 125% in these data.

Test system: CD2F1 mice, L1210 leukemia ip, survival T/C
Test: NCI In Vivo Anticancer Drug Screen. Data for tumor model L1210 Leukemia (intraperitoneal) in CD2F1 (CDF1) mice
Conditions: endpoint: mean survival time, higher = longer survival
In short: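 Tumor-bearing mice (transplanted tumor) were split into treated and vehicle control groups, and the measured endpoint of each treated group was divided by that of its vehicle controls.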

Measured: T/C

COC(=O)C(N)CCCCNc1ccc2c(cc1=O)C(NC(C)=O)CCc1cc(OC)c(OC)c(OC)c1-2 (configuration not stated)
inactive: dose: 3.1 mg/kg/injection, schedule: Q03HX008 (ip), vehicle: saline 105 % of control | dose: 3.1 mg/kg/injection, schedule: Q03HX016 (ip), vehicle: saline 91 % of control | dose: 3.1 mg/kg/injection, schedule: Q03HX024 (ip), vehicle: saline 96 % of control | dose: 6.3 mg/kg/injection, schedule: Q03HX008 (ip), vehicle: saline 92 % of control | dose: 6.3 mg/kg/injection, schedule: Q03HX016 (ip), vehicle: saline 103 % of control | dose: 6.3 mg/kg/injection, schedule: Q03HX024 (ip), vehicle: saline 102 % of control | dose: 12.5 mg/kg/injection, schedule: Q01DX009 (ip), vehicle: saline 91 % of control | dose: 12.5 mg/kg/injection, schedule: Q01DX009 (sc), vehicle: saline 88 % of control | dose: 12.5 mg/kg/injection, schedule: Q03HX008 (ip), vehicle: saline 97 % of control | dose: 12.5 mg/kg/injection, schedule: Q03HX016 (ip), vehicle: saline 97 % of control | dose: 12.5 mg/kg/injection, schedule: Q03HX024 (ip), vehicle: saline 107 % of control | dose: 25.0 mg/kg/injection, schedule: Q01DX001 (ip), vehicle: saline 102 % of control | dose: 25.0 mg/kg/injection, schedule: Q01DX001 (oral), vehicle: saline 100 % of control | dose: 25.0 mg/kg/injection, schedule: Q01DX001 (sc), vehicle: saline 88 % of control | dose: 25.0 mg/kg/injection, schedule: Q01DX009 (ip), vehicle: saline 100 % of control | dose: 25.0 mg/kg/injection, schedule: Q01DX009 (oral), vehicle: saline 96 % of control | dose: 25.0 mg/kg/injection, schedule: Q01DX009 (sc), vehicle: saline 91 % of control | dose: 25.0 mg/kg/injection, schedule: Q03HX008 (ip), vehicle: saline 105 % of control | dose: 25.0 mg/kg/injection, schedule: Q03HX016 (ip), vehicle: saline 94 % of control | dose: 25.0 mg/kg/injection, schedule: Q03HX024 (ip), vehicle: saline 108 % of control | dose: 25.0 mg/kg/injection, schedule: Q04DX003 (ip), vehicle: saline 100 % of control | dose: 25.0 mg/kg/injection, schedule: Q08DX002 (ip), vehicle: saline 91 % of control | dose: 50.0 mg/kg/injection, schedule: Q01DX001 (ip), vehicle: saline 94 % of control | dose: 50.0 mg/kg/injection, schedule: Q01DX001 (oral), vehicle: saline 94 % of control | dose: 50.0 mg/kg/injection, schedule: Q01DX001 (sc), vehicle: saline 92 % of control | dose: 50.0 mg/kg/injection, schedule: Q01DX009 (ip), vehicle: saline 103 % of control | dose: 50.0 mg/kg/injection, schedule: Q01DX009 (oral), vehicle: saline 91 % of control | dose: 50.0 mg/kg/injection, schedule: Q01DX009 (sc), vehicle: saline 91 % of control | dose: 50.0 mg/kg/injection, schedule: Q03HX008 (ip), vehicle: saline 107 % of control | dose: 50.0 mg/kg/injection, schedule: Q03HX016 (ip), vehicle: saline 97 % of control | dose: 50.0 mg/kg/injection, schedule: Q03HX024 (ip), vehicle: saline 111 % of control | dose: 50.0 mg/kg/injection, schedule: Q04DX003 (ip), vehicle: saline 92 % of control | dose: 50.0 mg/kg/injection, schedule: Q08DX002 (ip), vehicle: saline 103 % of control | dose: 53.0 mg/kg/injection, schedule: Q01DX005 (ip), vehicle: saline 108 % of control | dose: 53.0 mg/kg/injection, schedule: Q01DX009 (ip), vehicle: saline 107 % of control | dose: 53.0 mg/kg/injection, schedule: Q04DX003 (ip), vehicle: saline 87 % of control | dose: 80.0 mg/kg/injection, schedule: Q01DX005 (ip), vehicle: saline 114 % of control | dose: 80.0 mg/kg/injection, schedule: Q01DX009 (ip), vehicle: saline 110 % of control | dose: 80.0 mg/kg/injection, schedule: Q04DX003 (ip), vehicle: saline 87 % of control | dose: 100.0 mg/kg/injection, schedule: Q01DX001 (ip), vehicle: saline with Tween-80 106 % of control | dose: 100.0 mg/kg/injection, schedule: Q01DX001 (ip), vehicle: saline 88 % of control | dose: 100.0 mg/kg/injection, schedule: Q01DX001 (oral), vehicle: saline 96 % of control | dose: 100.0 mg/kg/injection, schedule: Q01DX001 (sc), vehicle: saline 92 % of control | dose: 100.0 mg/kg/injection, schedule: Q01DX009 (ip), vehicle: saline 114 % of control | dose: 100.0 mg/kg/injection, schedule: Q01DX009 (oral), vehicle: saline 91 % of control | dose: 100.0 mg/kg/injection, schedule: Q01DX009 (sc), vehicle: saline 92 % of control | dose: 100.0 mg/kg/injection, schedule: Q04DX002 (ip), vehicle: saline 108 % of control | dose: 100.0 mg/kg/injection, schedule: Q04DX003 (ip), vehicle: saline 91 % of control | dose: 100.0 mg/kg/injection, schedule: Q08DX002 (ip), vehicle: saline 100 % of control | dose: 120.0 mg/kg/injection, schedule: Q01DX005 (ip), vehicle: saline 118 % of control | dose: 120.0 mg/kg/injection, schedule: Q01DX009 (ip), vehicle: saline 114 % of control | dose: 120.0 mg/kg/injection, schedule: Q04DX003 (ip), vehicle: saline 98 % of control | dose: 180.0 mg/kg/injection, schedule: Q01DX005 (ip), vehicle: saline 118 % of control | dose: 180.0 mg/kg/injection, schedule: Q01DX009 (ip), vehicle: saline 105 % of control | dose: 180.0 mg/kg/injection, schedule: Q04DX003 (ip), vehicle: saline 96 % of control | dose: 200.0 mg/kg/injection, schedule: Q01DX001 (ip), vehicle: saline with Tween-80 106 % of control | dose: 200.0 mg/kg/injection, schedule: Q01DX001 (ip), vehicle: saline 97 % of control | dose: 200.0 mg/kg/injection, schedule: Q01DX001 (oral), vehicle: saline 94 % of control | dose: 200.0 mg/kg/injection, schedule: Q01DX001 (sc), vehicle: saline 97 % of control | dose: 200.0 mg/kg/injection, schedule: Q01DX009 (ip), vehicle: saline 118 % of control | dose: 200.0 mg/kg/injection, schedule: Q01DX009 (oral), vehicle: saline 96 % of control | dose: 200.0 mg/kg/injection, schedule: Q01DX009 (sc), vehicle: saline 94 % of control | dose: 200.0 mg/kg/injection, schedule: Q04DX002 (ip), vehicle: saline 104 % of control | dose: 200.0 mg/kg/injection, schedule: Q04DX003 (ip), vehicle: saline 103 % of control | dose: 200.0 mg/kg/injection, schedule: Q08DX002 (ip), vehicle: saline 111 % of control | dose: 270.0 mg/kg/injection, schedule: Q01DX005 (ip), vehicle: saline 90 % of control | dose: 270.0 mg/kg/injection, schedule: Q04DX003 (ip), vehicle: saline 98 % of control | dose: 400.0 mg/kg/injection, schedule: Q01DX001 (ip), vehicle: saline with Tween-80 107 % of control | dose: 400.0 mg/kg/injection, schedule: Q01DX001 (ip), vehicle: saline 108 % of control | dose: 400.0 mg/kg/injection, schedule: Q01DX001 (oral), vehicle: saline 96 % of control | dose: 400.0 mg/kg/injection, schedule: Q01DX001 (sc), vehicle: saline 100 % of control | dose: 400.0 mg/kg/injection, schedule: Q04DX003 (ip), vehicle: saline 113 % of control | dose: 400.0 mg/kg/injection, schedule: Q08DX002 (ip), vehicle: saline 113 % of control | dose: 800.0 mg/kg/injection, schedule: Q01DX001 (oral), vehicle: saline 94 % of control

COc1cc(/C=N/N2CCCCC2)cc(OC)c1OC
inactive: dose: 100.0 mg/kg/injection, schedule: Q04DX003 (ip), vehicle: saline with Tween-80 104 % of control | dose: 200.0 mg/kg/injection, schedule: Q04DX003 (ip), vehicle: saline with Tween-80 95 % of control | dose: 400.0 mg/kg/injection, schedule: Q04DX003 (ip), vehicle: saline with Tween-80 111 % of control
